In brackets after ≈: the same amount, converted by molar mass. Several values for one entry are separate records, joined by “and”; a condition that tells them apart may be missing. Identical values can stand only once. Counter-ions that a name gives are not always drawn. Like-named read-outs stand apart in the source and are kept apart here.
Columns and labels:
[1] = Rat lung retention assay (intra-tracheal dosing); type: in vivo; details: for Mean (cmpd) / (cmpd): 0.1 mg/kg intra-tracheal; for (cmpd) / PCT AU01/01128 compound 3 ng/g: individual animal; for (cmpd): bis(trifluoroacetic acid salt)
Description: Rodents are anaesthetised and dosed with compound of interest by the intra-tracheal route at a dose volume of 0.8 ml/kg. The rodent is then held in the vertical position until full recovery is achieved. […] Any analytical method suitable for detection of this type of compound may be used. The time at which levels of compound fall below the sensitivity of the analytical techniques identified will determine the residency time of the compound in lung tissue.
Please note that all experiments included a co-dosed internal standard, namely compound 3 of International Patent Publication No. WO 02/20514, to permit comparison. The data are expressed as a ratio with respect to this compound, the structure of which is shown below.

[2] = test system: A/New Caledonia/20/99 BVLV008 (H1N1); assay: Plaque reduction assay (PRA) in MDCK cells; type: cell-based; details: for EC50: Influenza A virus
B/Hong Kong/5/72 BVLV012 = assay: Plaque reduction assay (PRA) in MDCK cells; type: cell-based, influenza B; details: for EC50: Influenza B virus, MDCK, read-out: EC50 PRA B/HongK
Description: (§1) Madin Darby Canine Kidney (MDCK) cells are seeded into six well tissue culture plates and grown to confluency via standard methods. Influenza viruses are diluted in a minimal volume of phosphate buffered saline supplemented with 0.2% bovine serum albumin to yield an estimated titre of 50–100 plaque forming units (pfu) per well. After adsorption to the MDCK cells for one hour at 37° C. in a 5% CO2 atmosphere the viral inocula is aspirated and replaced with viral growth media (minimal Eagle's media supplemented with BSA, trypsin and insulin/transferrin/selenium at optimal concentrations) containing sufficient agar or agarose (generally 1–2%) to cause the media to gel at room temperature and at 37° C. in a 5% CO2 atmosphere until plaques develop (generally 2–4 days). Plaques can be visualised with a suitable stain (e.g. 0.4% crystal violet in formal saline) before counting.

A/WSN/33 BVLV09 (H1N1) = assay: Plaque reduction assay (PRA) in MDCK cells; type: cell-based, influenza A H1N1; details: A/WSN/33 (H1N1)
Description: as §1

[3] = test system: B/Yamanashi/166/98 BVLV007; assay: Plaque reduction assay (PRA) in MDCK cells; type: cell-based; details: for EC50: Influenza B virus, MDCK
[4] = test system: A/Panama/2007/99 BVLV008 (H3N2); assay: Plaque reduction assay (PRA) in MDCK cells; type: cell-based; details: for EC50: Influenza A virus
Influenza B/Harbin/7/95 = assay: Cytopathic effect (CPE) assay, inhibition of influenza virus replication in MDCK cells; type: cell-based
[5] = test system: A/Sydney/5/97 BVLV015 (H3N2); assay: Plaque reduction assay (PRA) in MDCK cells; type: cell-based, influenza A H3N2; details: A/Sydney/5/97 (H3N2)
Description: as §1

Influenza A/Sydney/5/97 = assay: Cytopathic effect (CPE) assay, inhibition of influenza virus replication in MDCK cells; type: cell-based; details: up to 72 hours, MTT
[6] = test system: A/Bayern/7/95 BVL006 (H1N1); assay: Plaque reduction assay (PRA) in MDCK cells; type: cell-based, influenza A H1N1; details: A/Bayern/7/95 (H1N1)
Description: as §1

B/Victoria/1/67 = assay: Plaque reduction assay (PRA) in MDCK cells; type: cell-based, influenza B; details: bis(trifluoroacetic acid salt)
[7] = test system: A/Victoria/3/75 BVLV017 (H3N2); assay: Plaque reduction assay (PRA) in MDCK cells; type: cell-based; details: Influenza A virus, MDCK; plaque reduction, A/Victoria/3/75 (H3N2); read-out: EC50 PRA A/Vic
[8] = rat, in vivo, 0.1 mg/kg, Mean (cmpd) ng/g
[9] = rat lung, co-dosed internal standard, 48 hrs

With `CC(=O)N[C@H]1[C@H]([C@H](OC(=O)NCCCCCCCCCCCCCNC(=O)O[C@@H]([C@@H]2OC(C(=O)O)=C[C@H](NC(=N)N)[C@H]2NC(C)=O)[C@H](O)CO)[C@H](O)CO)OC(C(=O)O)=C[C@@H]1NC(=N)N` [Example 4, (2R,3R,4S)-3-(acetylamino)-2-{(1R,21R,22R)-21-((2R,3R,4S)-3-(acetylamino)-4-{[amino(imino)methyl]amino}-6-carboxy-3,4-dihydro-2H-pyran-2-yl)-1-[(1R)-1,2-dihydroxyethyl]-22,23-dihydroxy-3,19-dioxo-2,20-dioxa-4,18-diazatricos-1-yl}-4-{[amino(imino)methyl]amino}-3,4-dihydro-2H-pyran-6-carboxylic acid bis(trifluoroacetic acid salt)] the “Ratio Mean (lung) (cmpd)/PCT AU01/01128 compound 3” value ([1]; rat, in vivo, 0.1 mg/kg, 48 h) was 1.70, the “Ratio Mean (lung) (cmpd)/PCT AU01/01128 compound 3” value ([1]; rat, in vivo, 0.1 mg/kg, 168 h) was 1.48 and the concentration at 48 h [1, 8] was 1770 ng/g. The concentration at 168 h [1, 8] was 756 ng/g, the EC50 ([2]; H1N1, MDCK, read-out: EC50 PRA A/New, plaque reduction, A/New Caledonia/20/99 (H1N1)) was 0.043 ng/mL and the EC50 (B/Hong Kong/5/72 BVLV012) was 0.06 ng/mL. The EC50 (A/WSN/33 BVLV09 (H1N1); Influenza A virus, MDCK) was less than 0.0001 ng/mL, the EC50 ([3]; read-out: EC50 PRA B/Yam, plaque reduction, B/Yamanashi/166/98) was less than 0.0001 ng/mL and the EC50 ([4]; H3N2, MDCK, read-out: EC50 PRA A/Pan, plaque reduction, A/Panama/2007/99 (H3N2)) was less than 1e-05 ng/mL. For the same compound, the “ID50 B/Harbin/7/95” value (Influenza B/Harbin/7/95; up to 72 hours, MTT) was 0.0001 µg/mL, the EC50 ([5]; Influenza A virus, MDCK, read-out: EC50 PRA A/Syd) was less than 0.0001 ng/mL and the “ID50 A/Sydney/5/97” value (Influenza A/Sydney/5/97) was 0.1 ng/mL.
With `CC(=O)N[C@H]1[C@H]([C@H](OC(=O)NCCCCCCCCCCCCCCNC(=O)O[C@@H]([C@@H]2OC(C(=O)O)=C[C@H](NC(=N)N)[C@H]2NC(C)=O)[C@H](O)CO)[C@H](O)CO)OC(C(=O)O)=C[C@@H]1NC(=N)N.O=C(O)C(F)(F)F.O=C(O)C(F)(F)F` [Example 5] the “Mean (cmpd)” value ([1]; rat lung, 48 hrs) was 4803 ng/g, the “Mean (cmpd)” value ([1]; rat lung, 168 hrs) was 1798 ng/g and the “(cmpd)” value ([1]; rat lung, 48 hrs, 0.1 mg/kg) was 3044 ng/g and 6268 ng/g and 5097 ng/g. For the same compound, the “(cmpd)” value ([1]; rat lung, 168 hrs, 0.1 mg/kg) was 2750 ng/g and 1255 ng/g and 1388 ng/g, the “EC50 PRA A/New” value ([2]; plaque reduction, A/New Caledonia/20/99 (H1N1)) was less than 0.0001 ng/mL and the “EC50 PRA B/HongK” value (B/Hong Kong/5/72 BVLV012) was 0.37 ng/mL. For the same compound, the “EC50 PRA A/WSN” value (A/WSN/33 BVLV09 (H1N1)) was less than 0.0001 ng/mL, the “EC50 PRA A/Bay” value [6] was less than 0.0001 ng/mL and the “EC50 PRA B/Yam” value ([3]; plaque reduction, B/Yamanashi/166/98) was less than 0.0001 ng/mL. For the same compound, the “EC50 PRA B/Vic” value (B/Victoria/1/67) was 0.1 ng/mL, the “EC50 PRA A/Pan” value ([4]; plaque reduction, A/Panama/2007/99 (H3N2)) was 0.032 ng/mL and the “ID50 B/Harbin/7/95” value (Influenza B/Harbin/7/95; molar) was 0.26 M. For the same compound, the “ID50 B/Harbin/7/95” value (Influenza B/Harbin/7/95; up to 72 hours, MTT) was 0.0003 µg/mL, the “EC50 PRA A/Syd” value [5] was 0.032 ng/mL and the “ID50 A/Sydney/5/97” value (Influenza A/Sydney/5/97) was 0.1 ng/mL.
In the case of `CCOC(=O)C1=C[C@@H](OC(CC)CC)[C@H](NC(C)=O)[C@@H](N)C1` [Oseltamivir], the EC50 ([2]; MDCK, plaque reduction, A/New Caledonia/20/99 (H1N1), read-out: EC50 PRA A/New) was 0.23 ng/mL (≈ 0.736 nM), the EC50 (B/Hong Kong/5/72 BVLV012) was 32 ng/mL (≈ 102 nM) and the EC50 [7] was 0.11 ng/mL (≈ 0.352 nM). The EC50 ([3]; plaque reduction, B/Yamanashi/166/98, read-out: EC50 PRA B/Yam) was 0.7 ng/mL (≈ 2.24 nM) and the EC50 ([4]; MDCK, plaque reduction, A/Panama/2007/99 (H3N2), read-out: EC50 PRA A/Pan) was 0.3 ng/mL (≈ 0.96 nM).
In the case of `CC(=O)N[C@H]1[C@H]([C@H](OC(=O)NCCCCCCNC(=O)CN(CCN(CC(=O)NCCCCCCNC(=O)O[C@H](C(O)CO)[C@@H]2OC(C(=O)O)=C[C@H](NC(=N)N)[C@H]2NC(C)=O)CC(=O)NCCCCCCNC(=O)O[C@H](C(O)CO)[C@@H]2OC(C(=O)O)=C[C@H](NC(=N)N)[C@H]2NC(C)=O)CC(=O)NCCCCCCNC(=O)O[C@H](C(O)CO)[C@@H]2OC(C(=O)O)=C[C@H](NC(=N)N)[C@H]2NC(C)=O)[C@H](O)CO)OC(C(=O)O)=C[C@@H]1NC(=N)N` (stereo partly drawn) [PCT AU01/01128 compound 3], the “Mean (PCT AU01/01128 compound 3)” value [1, 9] was 1478 ng/g and 1368 ng/g and 1413 ng/g, the “PCT AU01/01128 compound 3 ng/g” value [1, 9] was 1098 ng/g and 1352 ng/g and 681 ng/g and 784 ng/g and 2046 ng/g and 1605 ng/g and 698 ng/g and 1901 ng/g and 1507 ng/g and 655 ng/g and 1840 ng/g and 1744 ng/g and the “PCT AU01/01128 compound 3 ng/g” value ([1]; rat lung, co-dosed internal standard, 168 hrs) was 580 ng/g and 829 ng/g and 636 ng/g and 524 ng/g and 367 ng/g and 632 ng/g and 242 ng/g (2×) and 216 ng/g and 815 ng/g and 925 ng/g and 512 ng/g. The concentration at 48 h ([1]; rat, in vivo, rat lung, co-dosed internal standard, 48 hrs, read-out: Mean (PCT AU01/01128 compound 3)) was 1040 ng/g.

From patent publication US7230028B2, “Dimeric compounds and their use as anti-viral agents” (priority 2001, dated 2007)
